Calls of active or inactive are those of the source.
Legend:
[1] = target: Major prion protein (Homo sapiens, UniProt P04156); type: functional, cell-based
[2] = cells
[3] = target: T1, COUP transcription factor 2 (Homo sapiens, UniProt P24468); test: Luminescence-based cell-based high throughput dose response assay to identify inhibitors of COUP-TFII (NR2F2).; type: functional;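 note: HEK293 cells transiently cotransfected with COUP-TFII expression vector and reporter; luciferase reporter luminescence driven by COUP-TFII from the pX2-168 reporter plasmid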
T1 sequence (P24468 whole entry): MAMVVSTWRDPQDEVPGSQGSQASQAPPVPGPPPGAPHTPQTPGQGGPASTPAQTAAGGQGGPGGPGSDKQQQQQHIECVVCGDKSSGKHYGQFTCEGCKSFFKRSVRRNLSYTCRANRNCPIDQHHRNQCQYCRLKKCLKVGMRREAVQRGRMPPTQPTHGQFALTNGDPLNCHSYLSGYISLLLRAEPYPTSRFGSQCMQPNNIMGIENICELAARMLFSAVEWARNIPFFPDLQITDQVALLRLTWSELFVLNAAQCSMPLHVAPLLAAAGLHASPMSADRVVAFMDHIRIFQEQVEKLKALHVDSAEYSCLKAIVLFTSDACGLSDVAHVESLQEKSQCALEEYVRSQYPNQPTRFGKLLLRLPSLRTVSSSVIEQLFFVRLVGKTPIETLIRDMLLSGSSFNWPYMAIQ

[4] = target: Prothrombin (Homo sapiens, UniProt P00734); test: Thrombin 1536 HTS Dose Response Confirmation. [Related pubchem assays: 1046 (Thrombin 1536 HTS; hits were confirmed in this assay)]; type: functional
[5] = target: T2, DNA repair and recombination protein RAD54-like (Homo sapiens, UniProt Q92698); test: RAD54 Holliday junction migration blockers – biochemical, fluorescence, cherry-picked samples, dose series, confirmation (AID 651657); type: functional
T2 sequence (Q92698 whole entry): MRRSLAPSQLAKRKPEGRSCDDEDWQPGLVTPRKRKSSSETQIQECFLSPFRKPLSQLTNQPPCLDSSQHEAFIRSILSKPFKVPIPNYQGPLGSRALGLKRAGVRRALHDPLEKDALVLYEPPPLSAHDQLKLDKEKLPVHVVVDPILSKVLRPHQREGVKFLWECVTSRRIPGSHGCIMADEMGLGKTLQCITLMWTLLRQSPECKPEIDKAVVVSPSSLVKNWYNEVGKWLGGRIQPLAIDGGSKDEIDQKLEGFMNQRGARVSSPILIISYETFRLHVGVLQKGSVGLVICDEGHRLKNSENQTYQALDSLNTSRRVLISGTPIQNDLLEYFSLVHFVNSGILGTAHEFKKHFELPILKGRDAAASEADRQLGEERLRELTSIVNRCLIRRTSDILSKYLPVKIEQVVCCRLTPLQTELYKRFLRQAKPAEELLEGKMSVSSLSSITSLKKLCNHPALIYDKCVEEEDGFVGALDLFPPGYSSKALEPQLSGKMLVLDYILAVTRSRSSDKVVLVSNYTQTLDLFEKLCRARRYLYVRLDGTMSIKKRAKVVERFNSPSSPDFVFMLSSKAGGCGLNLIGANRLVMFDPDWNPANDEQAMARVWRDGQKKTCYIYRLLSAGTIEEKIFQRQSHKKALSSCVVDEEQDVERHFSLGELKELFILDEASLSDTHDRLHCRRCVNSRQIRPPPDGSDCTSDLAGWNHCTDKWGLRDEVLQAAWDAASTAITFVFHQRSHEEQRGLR

[6] = target: T3, Rac GTPase-activating protein 1 (Homo sapiens, UniProt Q9H0H5); test: blockers of MgcRacGAP-driven Rac1 GTP hydrolysis – biochemical, ADP Hunter fluorescence, primary and confirmatory, confirmation (AID 624330); type: functional
T3 sequence (Q9H0H5 whole entry): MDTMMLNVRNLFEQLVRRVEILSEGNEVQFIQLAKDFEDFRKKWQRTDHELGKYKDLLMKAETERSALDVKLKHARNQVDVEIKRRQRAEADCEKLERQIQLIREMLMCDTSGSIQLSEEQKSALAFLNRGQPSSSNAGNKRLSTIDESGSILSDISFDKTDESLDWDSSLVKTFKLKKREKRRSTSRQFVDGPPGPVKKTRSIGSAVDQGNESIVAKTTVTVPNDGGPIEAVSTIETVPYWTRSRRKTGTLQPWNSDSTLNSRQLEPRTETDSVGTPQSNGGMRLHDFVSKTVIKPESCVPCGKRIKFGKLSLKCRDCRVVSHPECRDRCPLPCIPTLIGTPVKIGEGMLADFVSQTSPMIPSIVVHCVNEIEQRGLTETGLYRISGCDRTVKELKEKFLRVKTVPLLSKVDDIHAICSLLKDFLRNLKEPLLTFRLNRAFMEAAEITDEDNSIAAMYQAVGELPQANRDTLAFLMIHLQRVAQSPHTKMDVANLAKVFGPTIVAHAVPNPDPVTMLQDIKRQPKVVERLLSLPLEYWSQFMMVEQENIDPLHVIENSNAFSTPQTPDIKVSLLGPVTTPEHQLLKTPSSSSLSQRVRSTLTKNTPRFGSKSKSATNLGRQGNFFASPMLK

[7] = target: T4, DNA repair protein RAD52 homolog (Homo sapiens, UniProt P43351); type: functional, biochemical
T4 sequence (P43351 whole entry): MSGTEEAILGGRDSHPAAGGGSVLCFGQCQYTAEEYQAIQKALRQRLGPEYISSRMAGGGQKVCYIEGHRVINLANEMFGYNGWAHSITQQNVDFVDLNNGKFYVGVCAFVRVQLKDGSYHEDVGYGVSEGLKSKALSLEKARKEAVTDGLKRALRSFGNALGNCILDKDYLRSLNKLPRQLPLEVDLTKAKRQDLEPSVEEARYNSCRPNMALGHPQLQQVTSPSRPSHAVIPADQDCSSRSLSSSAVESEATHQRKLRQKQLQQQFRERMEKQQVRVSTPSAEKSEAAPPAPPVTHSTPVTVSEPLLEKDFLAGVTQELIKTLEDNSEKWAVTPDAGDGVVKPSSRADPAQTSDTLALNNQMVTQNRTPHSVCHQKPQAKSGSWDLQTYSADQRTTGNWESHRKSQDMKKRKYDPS

[8] = target: T5, Heat shock factor protein 1 (Mus musculus, UniProt P38532); test: decrease of HSF1-responsive luciferase luminescence – cell-based, NIH3T3, dose retest, confirmation (AID 2382); type: functional;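 note: NIH3T3 fibroblasts with HSF1-driven luciferase reporter stressed by proteasome inhibitor MG132; luminescence from HSF1-driven luciferase expression after 8 hours of MG132 stress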
T5 sequence (P38532 whole entry): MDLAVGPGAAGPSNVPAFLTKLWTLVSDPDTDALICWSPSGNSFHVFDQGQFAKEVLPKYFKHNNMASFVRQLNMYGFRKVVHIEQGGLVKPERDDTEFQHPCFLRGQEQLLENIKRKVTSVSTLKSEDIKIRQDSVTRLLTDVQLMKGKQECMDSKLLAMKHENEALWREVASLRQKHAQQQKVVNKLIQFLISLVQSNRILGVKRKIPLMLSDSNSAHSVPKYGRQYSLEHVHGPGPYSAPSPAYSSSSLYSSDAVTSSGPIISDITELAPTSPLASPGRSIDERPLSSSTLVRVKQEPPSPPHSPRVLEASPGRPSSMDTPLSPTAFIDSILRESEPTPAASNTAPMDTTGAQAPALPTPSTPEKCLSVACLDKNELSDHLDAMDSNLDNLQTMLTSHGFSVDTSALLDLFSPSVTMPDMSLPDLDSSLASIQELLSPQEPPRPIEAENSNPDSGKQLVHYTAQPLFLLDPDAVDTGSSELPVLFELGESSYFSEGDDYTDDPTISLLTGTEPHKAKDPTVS

[9] = target: Paired box protein Pax-8 (Homo sapiens, UniProt Q06710); test: PAX8 transcriptional activity inhibition in RMG-I – RMG-I cells, luciferase, cherry-pick, dose response (AID 687027); type: functional, cell-based;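 note: luciferase reporter driven by Pax8 target thyroperoxidase promoter measured by SteadyGlo luminescence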
[10] = target: T6, Caspase-6 (Homo sapiens, UniProt P55212); test: inhibition of CASP6 peptide cleavage – biochemical, VEID-R110 fluorescence, cherry-pick, dose response (AID 720632)
T6 sequence (P55212 whole entry): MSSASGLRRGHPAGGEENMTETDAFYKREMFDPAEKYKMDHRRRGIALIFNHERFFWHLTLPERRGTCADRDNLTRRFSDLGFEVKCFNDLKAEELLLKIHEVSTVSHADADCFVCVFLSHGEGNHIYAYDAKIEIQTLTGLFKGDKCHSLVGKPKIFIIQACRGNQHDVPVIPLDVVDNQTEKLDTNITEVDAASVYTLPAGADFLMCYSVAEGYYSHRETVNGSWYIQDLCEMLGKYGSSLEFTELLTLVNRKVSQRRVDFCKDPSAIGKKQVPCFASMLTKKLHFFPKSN

[11] = general cell-killing toxicity readout – plate reader, dry powder samples, cytotoxicity control for PAX8 inhibitor project, dose response (AID 743021); type: functional, cell-based
[12] = reduction of Shn3 3'UTR-driven luciferase in osteoblasts – cell-based, Clone20 osteoblasts, firefly luciferase, cherry-picked, dose response (AID 624132); type: functional;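 note: firefly luciferase luminescence from reporter carrying the Shn3 3'UTR in osteoblasts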
[13] = loss of viability in HepG2 cells – cell-based, CellTiter-Glo, cherry-picked, cytotoxicity control for Shn3 inhibitor project, dose response (AID 624134); type: functional
[14] = non-specific 3'UTR reporter inhibition in Clone20-Shn3RL – cell-based, Renilla luciferase, cherry-picked, counter-screen for Shn3 inhibitor project, dose response (AID 624133); type: functional
[15] = viability loss in HeLa cells – cytotoxicity control for MgcRacGAP inhibitor project, dose response (AID 624300); type: functional
[16] = target: T7, Histone-lysine N-methyltransferase NSD2 (Homo sapiens, UniProt O96028); type: biochemical
T7 sequence (O96028 whole entry): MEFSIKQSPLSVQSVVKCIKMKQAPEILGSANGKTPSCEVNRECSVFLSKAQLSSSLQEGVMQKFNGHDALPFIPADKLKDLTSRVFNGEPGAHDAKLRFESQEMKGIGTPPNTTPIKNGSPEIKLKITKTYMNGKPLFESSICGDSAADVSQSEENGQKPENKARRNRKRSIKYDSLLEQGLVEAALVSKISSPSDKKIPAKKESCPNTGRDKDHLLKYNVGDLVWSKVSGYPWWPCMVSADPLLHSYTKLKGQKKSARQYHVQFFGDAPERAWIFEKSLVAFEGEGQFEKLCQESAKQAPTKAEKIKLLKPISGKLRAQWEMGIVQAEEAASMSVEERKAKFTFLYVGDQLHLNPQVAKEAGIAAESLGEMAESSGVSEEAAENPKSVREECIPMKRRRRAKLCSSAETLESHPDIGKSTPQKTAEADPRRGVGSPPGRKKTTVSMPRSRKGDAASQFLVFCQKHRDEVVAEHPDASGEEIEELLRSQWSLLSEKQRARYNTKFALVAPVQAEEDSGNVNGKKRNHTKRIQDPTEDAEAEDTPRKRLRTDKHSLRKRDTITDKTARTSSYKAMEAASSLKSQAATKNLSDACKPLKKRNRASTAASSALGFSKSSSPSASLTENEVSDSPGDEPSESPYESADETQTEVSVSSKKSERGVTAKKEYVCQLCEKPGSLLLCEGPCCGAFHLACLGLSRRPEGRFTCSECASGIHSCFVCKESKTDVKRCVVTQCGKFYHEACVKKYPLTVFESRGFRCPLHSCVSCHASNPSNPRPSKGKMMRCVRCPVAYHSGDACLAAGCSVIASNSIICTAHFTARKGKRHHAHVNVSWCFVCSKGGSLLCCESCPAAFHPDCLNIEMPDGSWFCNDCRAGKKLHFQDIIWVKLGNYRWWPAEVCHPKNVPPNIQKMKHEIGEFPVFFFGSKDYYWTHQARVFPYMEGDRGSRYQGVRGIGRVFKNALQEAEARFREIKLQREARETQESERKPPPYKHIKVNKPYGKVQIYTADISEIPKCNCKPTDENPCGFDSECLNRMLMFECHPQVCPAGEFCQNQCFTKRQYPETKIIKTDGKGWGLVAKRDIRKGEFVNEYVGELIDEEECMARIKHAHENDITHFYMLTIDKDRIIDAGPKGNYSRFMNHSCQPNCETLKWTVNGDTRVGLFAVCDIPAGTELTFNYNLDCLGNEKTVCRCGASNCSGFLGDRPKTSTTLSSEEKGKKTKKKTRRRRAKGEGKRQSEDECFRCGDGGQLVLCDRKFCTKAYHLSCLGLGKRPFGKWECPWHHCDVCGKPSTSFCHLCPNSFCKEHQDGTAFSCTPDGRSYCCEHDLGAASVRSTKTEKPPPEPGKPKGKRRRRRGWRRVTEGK

[17] = target: Genome polyprotein (dengue virus type 2, UniProt P29990); test: flavivirus cap methylation enzyme inhibition – biochemical, confirmation dose response, primary screen (AID 588689); type: functional

Structure (SMILES): O=C(COC(=O)CSc1ccc2ccccc2c1Br)NC1CC1
- IC50 [1]: 4.72 µM (active)
- IC50 [2]: > 138 µM (inactive)

Structure (SMILES): CCOCCCN=C(S)N1CCN(c2nc(-c3ccc(F)cc3)cs2)CC1
- IC50 [3]: 8.63 µM (active)

Structure (SMILES): CN(C)CCCNc1ncnc2sc(-c3ccccc3)cc12
- IC50 [4]: > 50 µM (not active)
- AC50 [5]: 17.4 µM (active)
- IC50 [6]: 29.9 µM (active)
- AC50 [7]: 14.6 µM (active)

Structure (SMILES): CC(C)(C)c1ccc(-c2nnc3sc(-c4ccccn4)nn23)cc1
- EC50 [8]: 0.871 µM (active)
- IC50 [3]: > 85.4 µM (inactive)

Structure (SMILES): Cc1cc2cccc(C)c2nc1SCC(=O)NNC(=O)c1ccco1
- IC50 [1]: 7.04 µM (active)
- IC50 [2]: > 138 µM (inactive)

Structure (SMILES): Cn1c(=S)sc2ccc3ccccc3c21
- IC50 [1]: 6.25 µM (active)
- IC50 [2]: 138 µM (inactive)

Structure (SMILES): Cc1cc(=O)n2c3c(c4c(cc13)c(CN(C)C)cc(=O)n4C)OC2
- AC50 [9]: 16.8 µM (active)
- AC50 [10]: 4.06 µM (active)
- AC50 [11]: 50 µM (active)

Structure (SMILES): CCN(CC)CC(C)(C)C(=O)/C=C/c1ccc(/C=C/C(=O)C(C)(C)CN(CC)CC)cc1
- AC50 [12]: 0.468 µM (active)
- AC50 [13]: 5.07 µM (active)
- AC50 [14]: 1.78 µM (active)
- CC50 [15]: 65.5 µM (active)
- IC50 [6]: 158 µM (active)
- AC50 [9]: 2.2 µM (active)
- AC50 [16]: > 20 µM (inactive)

Structure (SMILES): CC1=C/C(=C(\c2cc(C)c(O)c(Br)c2)c2ccccc2S(=O)(=O)O)C=C(Br)C1=O
- IC50 [17]: 53.2 µM (active)
- CC50 [15]: 100 µM (active)
- IC50 [6]: 79.4 µM (active)
- AC50 [16]: 14.6 µM (active)

Structure (SMILES): CCC(OC(=O)c1ccc(S(C)(=O)=O)c([N+](=O)[O-])c1)C(=O)NC1C2CC3CC(C2)CC1C3 (configuration not stated)
- AC50 [12]: 1.66 µM (active)
- AC50 [13]: 7.27 µM (active)
- AC50 [14]: 4.49 µM (active)
- AC50 [9]: 8.07 µM (active)
- AC50 [11]: 31.1 µM (active)

From ChEMBL document CHEMBL1201862, “PubChem BioAssay data set” (2004)
